Experimental data: PubChem BioAssay (NCI)
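Five concentrations, 48 hours, 96-well plates. Here, GI50 denotes the concentration required for 50% inhibition of growth. The concentration for full growth arrest is given as TGI.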

Key:
Test in all cases: NCI anticancer screen, dose series, 48 h
SK-MEL-5 melanoma = system: SK-MEL-5 melanoma
SW-620 colon = system: SW-620 colon
K-562 leukemia = system: K-562 leukemia
OVCAR-4 ovarian = system: OVCAR-4 ovarian
MDA-MB-231 breast = system: MDA-MB-231 breast
SK-MEL-28 melanoma = system: SK-MEL-28 melanoma
MALME-3M melanoma = system: MALME-3M melanoma
SNB-75 CNS = system: SNB-75 CNS
IGROV1 ovarian = system: IGROV1 ovarian
SF-268 CNS = system: SF-268 CNS
HOP-62 NSCLC = system: HOP-62 NSCLC

SMILES | TGI (SK-MEL-5 melanoma) [µM] | TGI (SW-620 colon) [µM] | TGI (K-562 leukemia) [µM] | TGI (OVCAR-4 ovarian) [µM] | TGI (MDA-MB-231 breast) [µM] | TGI (SK-MEL-28 melanoma) [µM] | TGI (MALME-3M melanoma) [µM] | TGI (SNB-75 CNS) [µM] | TGI (IGROV1 ovarian) [µM] | TGI (SF-268 CNS) [µM] | GI50 (SK-MEL-5 melanoma) [µM] | GI50 (SW-620 colon) [µM] | GI50 (K-562 leukemia) [µM] | GI50 (MDA-MB-231 breast) [µM] | GI50 (SK-MEL-28 melanoma) [µM] | GI50 (MALME-3M melanoma) [µM] | GI50 (HOP-62 NSCLC) [µM] | TGI (HOP-62 NSCLC) [µM] | GI50 (SNB-75 CNS) [µM] | GI50 (IGROV1 ovarian) [µM]
O=C1O/C(=C\C=C\CO)C=C1/C=C/CO | 46 | 45.9 | > 100 | > 100 | 52.8 | 49.7 | 32.5 | > 100 | 38.6 | 58.2 | – | – | – | – | – | – | – | – | – | –
CCCCCCCCc1ccc(CCC(N)(CO)CO)cc1 | 2.98 | 3.08 | 4.33 | – | 1.98 | 3.2 | 5.8 | 4.2 | 3.9 | – | 1.62 | 1.64 | 1.82 | 0.521 | 1.8 | 2.32 | 1.69 | 3.08 | 2.13 | 1.89
N=C(N)SCCN1CCCCC1 | > 100 | > 100 | 62.1 | > 100 | 44.6 | 88.8 | 32.1 | 94.1 | > 100 | > 100 | – | – | – | – | – | – | – | > 100 | – | –
NC(=S)N/N=C1\CC(c2ccccc2)Nc2ccccc21 (stereo not given) | 50.9 | > 100 | > 100 | – | – | > 100 | 97 | 49.1 | > 100 | > 100 | – | – | – | – | – | – | – | – | – | –
C[N+]1(c2ccccc2)C=C(c2ccccc2)SC1=S (stereo not given) | > 100 | > 100 | > 100 | – | > 100 | > 100 | > 100 | – | > 100 | > 100 | – | – | – | – | – | – | – | > 100 | – | –
CC1(Cc2cc3c(cc2C2(c4ccc([N+](=O)[O-])cc4)OCCO2)OCO3)OCCO1 | > 100 | > 100 | > 100 | > 100 | > 100 | > 100 | > 100 | – | > 100 | > 100 | – | – | – | – | – | – | – | > 100 | – | –
Cc1ncc(COP(=O)(O)O)c(C)c1O | > 100 | > 100 | > 100 | > 100 | > 100 | > 100 | > 100 | – | > 100 | > 100 | – | – | – | – | – | – | – | > 100 | – | –
CCOc1ccc(N=Nc2ccc(-c3ccc(N=Nc4c(O)ccc5cc(S(=O)(=O)O)cc(S(=O)(=O)O)c45)cc3)cc2)cc1 | > 100 | > 100 | > 100 | > 100 | > 100 | > 100 | > 100 | – | > 100 | > 100 | – | – | – | – | – | – | – | > 100 | – | –
Cc1ccccc1C1CC(=O)CC(c2ccccc2C)C12C(=O)NC(=S)NC2=O (stereo not given) | 32.7 | 90.4 | > 100 | > 100 | 90.1 | 44.5 | 78.4 | 70.7 | – | > 100 | – | – | – | – | – | – | – | > 100 | – | –
CC(=O)[C@]12OC(=O)C3=C1[C@H](CC[C@@H]3C)[C@@H](C)C[C@H]2C=C(C)C | 11.8 | 15.3 | 13.2 | – | 15.6 | – | – | – | 14.2 | 15.8 | – | – | – | – | – | – | – | 16 | – | –
Cc1cccc(/C=C2/C(=O)Nc3ccccc32)n1 | 26.3 | 49.7 | 40.4 | 56.7 | 34.3 | > 100 | 49.1 | > 100 | > 100 | 42.5 | – | – | – | 11.6 | – | – | – | 33.3 | – | 24.4
O=C(/C=C/c1ccc(O)cc1)c1cc(-c2cc(CCC(=O)c3ccc(O)cc3O)ccc2O)c(O)cc1O | > 50 | > 50 | 48.4 | > 50 | > 50 | > 50 | > 50 | 41.7 | > 50 | > 50 | – | – | – | – | – | – | – | > 50 | – | –
C=C(C[C@@H](O)[C@H](C)NC(=O)OCc1ccccc1)C(=O)OC(C)(C)C | > 100 | > 100 | > 100 | > 100 | > 100 | > 100 | > 100 | > 100 | > 100 | > 100 | – | – | – | – | – | – | – | > 100 | – | –
CC(=O)c1c(C)cc2cccc(OC3OC(CO)C(O)C(O)C3O)c2c1O (stereo not given) (tested in a mixture with another compound) | > 100 | > 100 | > 100 | > 100 | > 100 | > 100 | > 100 | > 100 | > 100 | > 100 | – | – | – | – | – | – | – | > 100 | – | –
CC(=O)Oc1cc(/C=C/c2ccc(O)cc2)cc(OC(C)=O)c1 | > 100 | > 100 | > 100 | > 100 | > 100 | > 100 | > 100 | > 100 | > 100 | > 100 | – | – | – | – | – | – | – | > 100 | – | –
CC(=O)C(N=NC1CCC(S(=O)(=O)NB2N=CS2)CC1)C(=O)Nc1ccccc1C (stereo not given) | 26.9 | 30 | > 100 | 74.1 | – | 30.8 | 30.5 | 33.8 | 35.2 | 30.8 | – | – | – | – | – | – | – | 34.7 | – | –
O=S(=O)([O-])[O-].[Fe+2].[OH2+]c1c(Cl)cc(Cl)cc1/C=N/Nc1ccccn1 | 15.1 | 3.49 | 3.26 | – | – | 3.32 | 3.57 | 1.64 | 3.13 | 1.94 | – | – | – | – | – | – | – | 3.56 | – | –
Nc1ccc(S(=O)(=O)NCCS(=O)(=O)O)cc1 | > 100 | > 100 | > 100 | > 100 | > 100 | > 100 | > 100 | > 100 | > 100 | > 100 | – | – | – | – | – | – | – | > 100 | – | –
